Converted amounts (≈) assume the structure as drawn. Read-outs that look alike come from different tables or passages of the source.
How the values were obtained:
[1] = system: multidrug-resistant clinical isolates of E. faecium; test: MIC against multidrug-resistant clinical isolates of E. faecium; assay type: cell-based; details: for MIC: Enterococcus faecium, read-out: MIC
S. aureus ATCC 29213 [2] = test: MIC by micro-dilution broth method (CLSI); assay type: cell-based; details: Staphylococcus aureus, ATCC29213; WT S. aureus ATCC 29213, n = 3; read-out: MIC Without Human Serum
S. aureus (FA-32×-B) = test: Neutropenic thigh infection burden study, FA-resistant strain; assay type: in vivo; details: neutropenic CD-1 mice, FA-resistant strain (P406L), 50 mg/kg IP at 1, 2, 3 h, burden at 8 h
E. faecium ATCC 19434 = test: MIC against sensitive E. faecium strain; assay type: cell-based; details: Enterococcus faecium, ATCC19434; sensitive strain E. faecium ATCC 19434
S. aureus ATCC 29213 [3] = test: Neutropenic thigh infection burden study, sensitive strain; assay type: in vivo; details: neutropenic CD-1 mice, 50 mg/kg IP at 1, 2, 3 h post infection, burden at 24 h
[4] = system: multidrug-resistant clinical isolates of S. aureus; test: MIC against multidrug-resistant clinical isolates of S. aureus; assay type: cell-based; details: for MIC: Staphylococcus aureus, read-out: MIC
S. aureus ATCC BAA-1721 = test: MIC against strain possessing the fusC gene; assay type: cell-based; details: Staphylococcus aureus, ATCCBAA1721
[5] = Pharmacokinetic assessment in mice; assay type: in vivo, C57BL/6 mice; details: mice, 50 mg/kg intraperitoneal, serum, one-compartment model
Procedure: FIG. 3. A). Pharmacokinetic analysis of fusidic acid and FA-CP. […] The data are illustrated as the mean and represent the average of three independent experiments. The pharmacokinetic parameters illustrated above were calculated with a one-compartment model using a non-linear regression program (Phoenix WinNonlin Version 8.1, Certara USA Inc. Princeton NJ 08540 USA). B). S. aureus ATCC 29213 neutropenic thigh infection burden study. CD-1 mice were first rendered neutropenic with cyclophosphamide. Mice were injected on (Day-4 to Day-2) with 150 mg/kg and on (Day-1) with 100 mg/kg of cyclophosphamide, respectively. […] C). S. aureus (FA-32×-B) neutropenic thigh infection study. CD-1 mice were first rendered neutropenic with cyclophosphamide as described above. […] Drugs were formulated with 5% DMSO, 10% Tween 20, 85% PBS immediately before injection. The data shown as means±s.d. and statistical significance was determined by one-way ANOVA with Tukey's multiple comparisons. NS indicates not significant (P>0.05), **P<0.01, ****P<0.0001.
Pharmacokinetic Assessment of sodium fusidate and FA-CP (25). […] The compounds were formulated in 5% DMSO, 10% Tween 20, and 85% PBS. Mice were treated with sodium fusidate or FA-CP (25) (50 mg/kg) via intraperitoneal injection with three mice per time point (15, 30, 45, 60, 120, and 240 min). At specific time points, mice were sacrificed, blood was collected and centrifuged, and the serum was frozen at −80° C. until analysis. The proteins in a 10 μL aliquot of serum were precipitated by the addition of 50 μL acetonitrile with the addition of 10 μL of 1.6 ug/mL internal standard (sodium fusidate was the internal standard when measuring FA-CP (25) and FA-CP (25) was the internal standard when measuring sodium fusidate). The sample was then vortexed and centrifuged to remove the proteins. Supernatants were analyzed with the QTRAP 5500 LC/MS/MS system (Sciex) in the Metabolomics Laboratory of the Roy J. Carver Biotechnology center, University of Illinois at Urbana-Champaign. Software Analyst 1.6.2 was used for data acquisition and analysis. The 1200 Series HPLC System (Agilent Technologies) includes a degasser, an autosampler and a binary pump. The liquid chromatography separation was performed on an Agilent Zorbax SB-Aq column (4.6 mm×50 mm; 5 μm) with mobile phase A (0.1% formic acid in water) and mobile phase B (0.1% formic acid in acetonitrile). The flow rate was 0.3 mL/min. The linear gradient was as follows: 0-1 min: 95% A; 8-13 min: 0% A; 8.1-18.5 min: 95% A. The autosampler was set at 10° C. The injection volume was 5 μL. Mass spectra were acquired under negative electrospray ionization with a voltage of −4,500 V. The source temperature was 450° C. The curtain gas, ion source gas 1 and ion source gas 2 were 32, 60 and 60 psi, respectively. […] The limit of quantitation of (S/N=10) was 1 nM. Pharmacokinetic parameters were calculated with a one-compartment model using a nonlinear regression program (Phoenix WinNonlin Version 8.1; Certara USA).

Q: What does the source list for CC(=O)O[C@H]1C[C@@]2(C)[C@@H](C[C@@H](O)[C@H]3[C@@]4(C)CC[C@@H](O)[C@@H](C)[C@@H]4CC[C@@]32C)/C1=C(\CCC=C(C)C)C(=O)O [FA, Fusidic acid]?
A: Cross-resistance with vancomycin ([1]; E. faecium clinical isolates): no cross-resistance with vancomycin; MIC ([1]; E. faecium AR0572 (CDC)): 4 µg/mL (≈ 7.74 µM); MIC ([1]; E. faecium AR0574 (CDC)): 2 µg/mL (≈ 3.87 µM); MIC ([1]; E. faecium AR0575 (CDC)): 2 µg/mL (≈ 3.87 µM); MIC ([1]; E. faecium AR0576 (CDC)): 4 µg/mL (≈ 7.74 µM); MIC ([1]; E. faecium AR0578 (CDC)): 2 µg/mL (≈ 3.87 µM); MIC ([1]; E. faecium AR0579 (CDC)): 1 µg/mL (≈ 1.94 µM); MIC (S. aureus ATCC 29213 [2]): 0.125 µg/mL (≈ 0.242 µM); Bacterial burden in thigh (S. aureus (FA-32×-B)): no efficacy; MIC (E. faecium ATCC 19434): 2 µg/mL (≈ 3.87 µM); Bacterial burden in thigh (S. aureus ATCC 29213 [3]): Significant reductions in bacterial burden; Cross-resistance with vancomycin ([4]; 29 clinical isolates of S. aureus): no cross-resistance with vancomycin; MIC ([4]; NRS3, S. aureus NRS3 (NARSA)): 0.0625 µg/mL (≈ 0.121 µM); MIC ([4]; NRS4, S. aureus NRS4 (NARSA)): 0.0625 µg/mL (≈ 0.121 µM); MIC ([4]; NRS17, S. aureus NRS17 (NARSA)): 0.0625 µg/mL (≈ 0.121 µM); MIC ([4]; NRS18, S. aureus NRS18 (NARSA)): 0.125 µg/mL (≈ 0.242 µM); MIC ([4]; NRS21, S. aureus NRS21 (NARSA)): 0.0625 µg/mL (≈ 0.121 µM); MIC ([4]; NRS22, S. aureus NRS22 (NARSA)): 0.0625 µg/mL (≈ 0.121 µM); MIC ([4]; NRS23, S. aureus NRS23 (NARSA)): 0.125 µg/mL (≈ 0.242 µM); MIC ([4]; NRS24, S. aureus NRS24 (NARSA)): 0.0625 µg/mL (≈ 0.121 µM); MIC ([4]; NRS26, S. aureus NRS26 (NARSA)): 0.0625 µg/mL (≈ 0.121 µM); MIC ([4]; NRS27, S. aureus NRS27 (NARSA)): 0.125 µg/mL (≈ 0.242 µM); MIC ([4]; NRS29, S. aureus NRS29 (NARSA)): 0.125 µg/mL (≈ 0.242 µM); MIC ([4]; NRS51, S. aureus NRS51 (NARSA)): 0.0625 µg/mL (≈ 0.121 µM); MIC ([4]; NRS68, S. aureus NRS68 (NARSA)): 0.125 µg/mL (≈ 0.242 µM); MIC ([4]; NRS73, S. aureus NRS73 (NARSA)): 0.125 µg/mL (≈ 0.242 µM); MIC ([4]; NRS74, S. aureus NRS74 (NARSA)): 0.125 µg/mL (≈ 0.242 µM); MIC ([4]; NRS76, S. aureus NRS76 (NARSA)): 0.125 µg/mL (≈ 0.242 µM); MIC ([4]; NRS77, S. aureus NRS77 (NARSA), no noted resistance): 0.0625 µg/mL (≈ 0.121 µM); MIC ([4]; NRS382, S. aureus NRS382 (NARSA)): 0.0625 µg/mL (≈ 0.121 µM); MIC ([4]; NRS383, S. aureus NRS383 (NARSA)): 0.125 µg/mL (≈ 0.242 µM); MIC ([4]; NRS384, S. aureus NRS384 (NARSA)): 0.125 µg/mL (≈ 0.242 µM); MIC ([4]; S. aureus AR0561 (CDC)): 0.125 µg/mL (≈ 0.242 µM); MIC ([4]; S. aureus AR0562 (CDC)): 0.125 µg/mL (≈ 0.242 µM); MIC ([4]; S. aureus AR0563 (CDC)): 0.125 µg/mL (≈ 0.242 µM); MIC ([4]; S. aureus AR0564 (CDC)): 0.125 µg/mL (≈ 0.242 µM); MIC ([4]; S. aureus AR0565 (CDC)): 0.0625 µg/mL (≈ 0.121 µM); MIC ([4]; S. aureus AR0566 (CDC)): 0.125 µg/mL (≈ 0.242 µM); MIC ([4]; S. aureus AR0567 (CDC)): 0.125 µg/mL (≈ 0.242 µM); MIC ([4]; S. aureus AR0568 (CDC)): 0.125 µg/mL (≈ 0.242 µM); MIC ([4]; S. aureus AR0570 (CDC)): 0.125 µg/mL (≈ 0.242 µM); MIC (S. aureus ATCC BAA-1721): 8 µg/mL (≈ 15.5 µM); AUC ([5]; female, C57BL/6, mouse, in vivo, ip, read-out: AUC (converted)): 9360 ng·h/mL; Cmax ([5]; female, C57BL/6, mouse, in vivo, ip, read-out: Cmax): 11100 ng/mL; Tmax ([5]; female, C57BL/6, mouse, in vivo, ip, read-out: Tmax (converted)): 5.4 min; CL_F [5]: 89.0 mL/min/kg; K10_HL [5]: 31.2 min
